From ChEMBL document CHEMBL3098110, “Modulating the interaction between CDK2 and cyclin A with a quinoline-based inhibitor” (Bioorg Med Chem Lett, 2014) come the findings set out here.

The target of test [1] is T1, Cyclin-dependent kinase 2 (Homo sapiens, UniProt P24941).
Description: Inhibition of CDK2 (unknown origin)-cyclin A interaction preincubated for 30 mins at room temperature followed by incubation at 40 degC for 30 mins by SDS-PAGE analysis
Test [2] deals with T1, Cyclin-dependent kinase 2. The source holds these as a separate data set.
Test [3] deals with T1, Cyclin-dependent kinase 2. The source holds these as a separate data set.
Description: Displacement of B-Alexa-Fluor647 from CDK2 (unknown origin) by fluorescence polarization assay
For test [4], the target named is T1, Cyclin-dependent kinase 2. This is another data set of the same source.
Description: Binding affinity to human CDK2 by isothermal titration calorimetric analysis

`COC(=O)[C@H](Cc1ccc(O)cc1)NC(=O)c1cc(C(=O)NS(C)(=O)=O)c2cc(-c3cccs3)ccc2n1` came in with an IC50 in test [1] above 10000 nM. For the same compound, the Kd in test [2] is above 40000 nM. In test [3], this compound came in with a Ki above 40000 nM.
On to `COC(=O)[C@H](Cc1ccc(F)cc1)NC(=O)c1cc(C(=O)O)c2cc(-c3cccc(C(F)(F)F)c3)ccc2n1`, for which the IC50 in test [1] was above 10000 nM. Also, binding in test [2] was put at a Kd of 4000 nM. In test [3], this compound displayed a Ki of 2500 nM.
The like results for `COC(=O)[C@H](Cc1ccc(OC)cc1)NC(=O)c1cc(C(=O)O)c2cc(-c3cccc(C(F)(F)F)c3)ccc2n1` were, in that order, above 10000 nM, above 40000 nM and above 40000 nM.
For `COC(=O)[C@H](Cc1cccc(O)c1)NC(=O)c1cc(C(=O)O)c2cc(-c3cccc(C(F)(F)F)c3)ccc2n1` the same measures were above 10000 nM, above 40000 nM and above 40000 nM.
`O=C(NCCc1ccc(O)cc1)c1cc(C(=O)O)c2cc(-c3cccs3)ccc2n1`: the IC50 in test [1] is above 10000 nM. Further, the Kd in test [2] is above 40000 nM. The Ki in test [3] is above 40000 nM.
As to `O=C(N[C@@H](Cc1ccc(O)cc1)C(=O)O)c1cc(C(=O)O)c2cc(-c3cccc(C(F)(F)F)c3)ccc2n1`, the IC50 in test [1] was above 10000 nM. In addition, the Kd in test [2] was above 10000 nM. Moreover, the Ki in test [3] turned out to be 12000 nM.
In turn, `C[C@H](Cc1ccc(O)cc1)NC(=O)c1cc(C(=O)O)c2cc(-c3cccc(C(F)(F)F)c3)ccc2n1` gave an IC50 in test [1] above 10000 nM. In test [2], this compound came in with a Kd of 4000 nM. This compound displayed a Ki in test [3] of 2500 nM.
For `CCC[C@H](Cc1ccc(O)cc1)NC(=O)c1cc(C(=O)O)c2cc(-c3cccc(C(F)(F)F)c3)ccc2n1` the same measures were above 10000 nM, 400 nM and 300 nM.
For `CNC(=O)[C@H](Cc1ccc(O)cc1)NC(=O)c1cc(C(=O)O)c2cc(/C=C/c3ccc(Cl)cc3)ccc2n1` the same measures were above 10000 nM, 300 nM and 100 nM.
For `CN(C)C(=O)[C@H](Cc1ccc(O)cc1)NC(=O)c1cc(C(=O)O)c2cc(/C=C/c3ccc(Cl)cc3)ccc2n1` the same measures were above 10000 nM, 350 nM and 160 nM.
`COC[C@H](Cc1ccc(O)cc1)NC(=O)c1cc(C(=O)O)c2cc(-c3cccc(C(F)(F)F)c3)ccc2n1`: the IC50 in test [1] was above 10000 nM. The Kd in test [2] came to 240 nM. Moreover, the affinity in test [3] corresponds to a Ki of 100 nM.
For `COC[C@H](Cc1ccc(O)cc1)NC(=O)c1cc(C(=O)O)c2cc(/C=C/c3ccc(Cl)cc3)ccc2n1` the same measures were above 10000 nM, 25 nM and below 100 nM.
Turning to `COC(=O)[C@H](Cc1ccc(O)cc1)NC(=O)c1cc(C(=O)O)c2cc(-c3cccs3)ccc2n1`, the Kd in test [4] worked out at 1000 nM; in test [2], 1100 nM. In test [1], this compound gave an IC50 above 10000 nM. This compound also displayed a Ki in test [3] of 900 nM.
Regarding `COC(=O)[C@H](Cc1ccc(O)cc1)NC(=O)c1cc(C(=O)O)c2cc(-c3ccc(Cl)cc3)ccc2n1`, the IC50 in test [1] was above 10000 nM. This compound yielded a Kd in test [2] of 900 nM. The compound also gave a Ki in test [3] of 900 nM.
`COC(=O)[C@H](Cc1ccc(O)cc1)NC(=O)c1cc(C(=O)O)c2cc(-c3cc(Cl)cc(Cl)c3)ccc2n1` came in with a half-maximal inhibitory concentration (IC50) in test [1] above 10000 nM. The compound also came in with a Kd in test [2] of 320 nM. The compound also displayed a Ki in test [3] of 200 nM.
The like results for `COC(=O)[C@H](Cc1ccc(O)cc1)NC(=O)c1cc(C(=O)O)c2cc(-c3ccccc3)ccc2n1` were, in that order, above 10000 nM, 12000 nM and 10000 nM.
For `COC(=O)[C@H](Cc1ccc(O)cc1)NC(=O)c1cc(C(=O)O)c2cc(N3CCOCC3)ccc2n1` the same measures were above 10000 nM, 2400 nM and 2800 nM.
As for `COC(=O)[C@H](Cc1ccc(O)cc1)NC(=O)c1cc(C(=O)O)c2cc(-c3cccc(C(F)(F)F)c3)ccc2n1`, the Kd was found to be 50 nM in test [4] and 40 nM in test [2]. The compound also had an IC50 in test [1] above 10000 nM. The compound further yielded a Ki in test [3] below 100 nM.
For `COC(=O)[C@H](Cc1ccc(O)cc1)NC(=O)c1cc(C(=O)O)c2cc(CCc3ccc(Cl)cc3)ccc2n1` the same measures were 55 nM, 48 nM, above 10000 nM and below 100 nM.
In the case of `COC(=O)[C@H](Cc1ccc(O)cc1)NC(=O)c1cc(C(=O)O)c2cc(/C=C/c3ccc(Cl)cc3)ccc2n1`, the IC50 in test [1] is above 10000 nM. This compound had a Kd in test [2] of 5 nM. In test [3], this compound showed a Ki below 100 nM.
Regarding `CCCCCCc1ccc2nc(C(=O)N[C@@H](Cc3ccc(O)cc3)C(=O)OC)cc(C(=O)O)c2c1`, the IC50 in test [1] was above 10000 nM. Further, binding in test [2] was put at a Kd of 76 nM. In test [3], this compound registered a Ki below 100 nM.
`COC(=O)[C@H](Cc1ccc(O)cc1)NC(=O)c1cc(CO)c2cc(-c3cccc(C(F)(F)F)c3)ccc2n1` registered an IC50 in test [1] above 10000 nM. The compound further yielded a Kd in test [2] above 40000 nM. The compound also came in with a Ki in test [3] above 40000 nM.
`COC(=O)[C@H](Cc1ccc(O)cc1)NC(=O)c1cc(C(N)=O)c2cc(-c3cccs3)ccc2n1` came in with an IC50 in test [1] above 10000 nM. The compound also yielded a Kd in test [2] above 40000 nM. The compound also came in with a Ki in test [3] above 40000 nM.

As usually defined, the IC50 is the point on the concentration scale where inhibition reaches its midpoint. Read a low IC50 as greater potency. One may read the Kd as the constant that tells how readily two partners part at equilibrium. A low value points to tighter binding. The term Ki denotes the dissociation constant of the complex between target and ligand, obtained from inhibition or displacement. Low values mean tighter binding, high ones weaker binding.
